Test results from patent US20190125867A1, “THERAPEUTIC AGENT FOR SOLID CANCER” (IDAC THERANOSTICS, INC., priority 2014, published 2019).

Experiments:
[1] = system: mouse melanoma cell line B16F10; assay: Tumor volume in C57BL/6 mice transplanted with melanoma cell line B16F10; type: in vivo; conditions: Day 15
Description: On Day −2 (two days before the cancer cell transplantation), Day 0 (=day of cancer cell transplantation), Day 3, Day 5, Day 9, or Day 12, 0.2 mg of an anti-CD4 antibody (GK1.5; an antibody known to be capable of causing depletion of CD4+ cells in the mouse body by the CDC activity; manufactured by BioXcell) was intraperitoneally administered at one time. The solid tumor diameter was measured on Day 14, and the tumor volume was calculated by short diameter×short diameter×long diameter×π/6.
On Day 5, 3.125 μg, 12.5 μg, 50 μg, or 200 μg of the anti-CD4 antibody was administered (negative control group: no antibody was administered).
The solid tumor diameter in each mouse was measured, and the tumor volume was calculated (short diameter×short diameter×long diameter×π/6).
Thereafter, antibody administration was carried out as follows (Day 0=day of cancer cell transplantation).
The tumor volume was calculated (short diameter×short diameter×long diameter×π/6) from the solid tumor diameter measured on Day 18.
The tumor volume was calculated (short diameter×short diameter×long diameter×π/6) from the solid tumor diameter measured on Day 15.
The tumor volume was calculated (short diameter×short diameter×long diameter×π/6) from the solid tumor diameter measured on Day 16.

[2] = system: CD4+ cells in human peripheral blood mononuclear cells; assay: ADCC activity assay (Promega ADCC activity assay kit, PBMCs + ADCC Bioassay Effector cells); type: cell-based; conditions: 12,500 PBMCs, 75,000 effector cells, 37° C. 6 hours; FIG. 1
Description: Measurement of the ADCC activity of IT1208 was carried out under the following conditions, according to the protocol for an ADCC activity assay kit sold by Promega. After gently mixing 12,500 PBMCs derived from a healthy individual, anti-CD4mAb (IT1208), and 75,000 ADCC Bioassay Effector cells contained in the Promega kit, the cells were cultured in a CO2 incubator at 37° C. for 6 hours. The luminescent reagent Bio-Glo reagent was added to the culture, and culturing was then continued at room temperature for 20 minutes, followed by measuring chemiluminescence using a luminescence plate reader.

[3] = Example 7 (small molecule anticancer agents), anti-CD4 0.2 mg Day 5, 9, OXA 10, GEM 20, CPA 10 mg/kg Day 5, 9, 12, 16, FIG. 23

Row | Molecule | growth of solid tumor relative to control group [1, 3] [%] | further results
1 | O=c1[nH]cc(F)c(=O)[nH]1 [5-FU] | – | growth of solid tumor relative to control group ([1]; Example 4, anti-CD4 0.2 mg once Day 5, anti-CD137 0.1 mg Day 5-9, 5-FU 50 mg/kg four times, FIG. 13): 36%
2 | O=P1(N(CCCl)CCCl)NCCCO1 (stereo not shown) [CPA, Cyclophosphamide] | 75 | –
3 | Nc1ccn([C@@H]2O[C@H](CO)[C@@H](O)C2(F)F)c(=O)n1 [GEM, Gemcitabine] | 63 | –
4 | Rituximab | – | concentration at which ADCC activity began to be found [2]: ≥ 10 nM
